These results are taken from article PMC11025614 (Pharmacology Research & Perspectives, 2024).

For data set [1] the following is noted: oral midazolam with fluconazole; cited from earlier work.
For data set [2] the following is noted: cited from earlier work.
The nature of a further data set: PopPK modeling. The format is in vivo, human. The conditions noted are these: for Vd: female, human, blood, oral.
A short description of data set [3]: Therapeutic drug monitoring of sirolimus trough concentration. The format is in vivo, human.

Regarding `Cc1ncc2n1-c1ccc(Cl)cc1C(c1ccccc1F)=NC2` [midazolam], in data set [1], the “increase of AUC” value is on record as 270% and the “increase of C max” value is 130%.

For `CO[C@H]1C[C@@H]2CC[C@@H](C)[C@@](O)(O2)C(=O)C(=O)N2CCCC[C@H]2C(=O)O[C@H]([C@H](C)C[C@@H]2CC[C@@H](O)[C@H](OC)C2)CC(=O)[C@H](C)/C=C(\C)[C@@H](O)[C@@H](OC)C(=O)[C@H](C)C[C@H](C)/C=C/C=C/C=C/1C` [sirolimus], in data set [2] (ciclosporin and prednisone coadministered), the “variation in apparent oral clearance between patients” value was 4.5 fold. In data set [2] (estimated by Wu and coworkers), the “apparent oral sirolimus clearance, population mean” value is 12.9 L/h. Also, the “CL1 (apparent oral clearance, clearance from central compartment)” value is on record as 30.7 L/h in the data set “PopPK modeling” (before fluconazole) and 14.1 L/h in the data set “PopPK modeling” (during fluconazole). Further, the “CL2 (clearance between central and peripheral compartments)” value in “PopPK modeling” (before fluconazole) came out at 253 L/h; in “PopPK modeling” (during fluconazole), 8.56 L/h. Further, the figures for the “V 2 (volume of distribution of peripheral compartment)” value in “PopPK modeling” (before fluconazole) and in “PopPK modeling” (during fluconazole) were 305 L and 361 L, respectively. The Vd in the data set “PopPK modeling” turned out to be 81.3 L; in the data set “PopPK modeling” (5 mg/day), 33.7 L. Also, the “sirolimus C min” value in data set [3] (4.5 mg twice daily with fluconazole 400 mg/day) was 8.2 ng/mL; in data set [3] (9 mg daily with oral fluconazole 400 mg once daily, day 3 after initiation), 4.7 ng/mL; in data set [3] (after 1 week of 9 mg/day (assumed steady-state), no fluconazole), 2.9 to 4.2 ng/mL. The compound also gave a sirolimus concentrations in data set [3] (afterward, during fluconazole, for more than 4 weeks) of 3.1 to 9.5 ng/mL. In addition, the “mean sirolimus C min” value in data set [3] (maintenance dose 9 mg sirolimus/day, before fluconazole) is reported as 3.5 ng/mL.
